According to ChEMBL document CHEMBL5729737, “FGFR4 inhibitor, preparation method therefor, and applications thereof” (2023):

What was measured:
[1] = molecular target: Fibroblast growth factor receptor 4 (Homo sapiens, UniProt P22455); assay: 5) 10 μL of EDTA and a test solution comprising labeled antibody were added, and the plate was incubated for 1 hour at room temperature. […] 7) The inhibition rates were calculated according to the fluorescence signal values.
[2] = molecular target: Fibroblast growth factor receptor 1 (Homo sapiens, UniProt P11362); assay: Enzymologic Experiment of FGFR1: In this experiment, the inhibitory effect of the compounds on FGFR1 kinase activity was tested by a fluorescence resonance energy transfer (TR-FRET) method, and the half maximal inhibitory concentration (IC50) of the compounds on the FGFR1 kinase activity was determined. 1) 1˜5 μL of FGFR1 enzyme solution was added to a 384-well plate, and the final concentration of the enzyme was 0.1˜5 nM. 2) 1˜5 μL of diluted solution in gradient of the compound was added. 3) 1˜5 μL of a substrate mixture containing substrate polypeptide with a final concentration of 5˜50 nM and ATP with a final concentration of 10˜200 μM was added. 4) The mixture was incubated for 0.5˜3 hours at room temperature. 5) 10 μL of EDTA and a test solution comprising labeled antibody were added, and the plate was incubated for 1 hour at room temperature. 6) The fluorescence signal values of each plate were determined by a microplate reader at 665 nm.7) The inhibition rates were calculated according to the fluorescence signal values.
Sequence of Fibroblast growth factor receptor 1 (P11362 whole entry): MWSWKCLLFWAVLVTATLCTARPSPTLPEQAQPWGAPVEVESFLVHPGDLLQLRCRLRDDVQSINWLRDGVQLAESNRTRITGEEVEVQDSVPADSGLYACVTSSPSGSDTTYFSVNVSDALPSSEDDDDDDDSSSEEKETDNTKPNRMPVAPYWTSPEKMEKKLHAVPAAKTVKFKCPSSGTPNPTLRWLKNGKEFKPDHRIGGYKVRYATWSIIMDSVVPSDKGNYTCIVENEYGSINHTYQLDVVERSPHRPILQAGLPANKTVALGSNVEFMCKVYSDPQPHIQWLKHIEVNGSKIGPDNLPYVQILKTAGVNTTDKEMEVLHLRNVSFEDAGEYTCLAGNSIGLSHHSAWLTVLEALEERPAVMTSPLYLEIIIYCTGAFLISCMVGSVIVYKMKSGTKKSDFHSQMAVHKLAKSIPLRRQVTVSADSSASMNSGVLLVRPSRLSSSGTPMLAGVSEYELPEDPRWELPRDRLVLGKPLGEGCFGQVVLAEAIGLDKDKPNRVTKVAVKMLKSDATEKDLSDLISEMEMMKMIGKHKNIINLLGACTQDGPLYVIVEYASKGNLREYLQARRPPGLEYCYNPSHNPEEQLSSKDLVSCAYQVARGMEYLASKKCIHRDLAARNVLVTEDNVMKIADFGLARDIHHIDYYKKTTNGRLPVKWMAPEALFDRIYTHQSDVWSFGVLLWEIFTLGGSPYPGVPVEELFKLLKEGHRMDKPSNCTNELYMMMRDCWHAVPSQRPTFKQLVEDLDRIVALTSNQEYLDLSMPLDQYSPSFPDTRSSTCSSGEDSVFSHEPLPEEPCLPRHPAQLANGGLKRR

Sequence of Fibroblast growth factor receptor 4 (P22455 whole entry): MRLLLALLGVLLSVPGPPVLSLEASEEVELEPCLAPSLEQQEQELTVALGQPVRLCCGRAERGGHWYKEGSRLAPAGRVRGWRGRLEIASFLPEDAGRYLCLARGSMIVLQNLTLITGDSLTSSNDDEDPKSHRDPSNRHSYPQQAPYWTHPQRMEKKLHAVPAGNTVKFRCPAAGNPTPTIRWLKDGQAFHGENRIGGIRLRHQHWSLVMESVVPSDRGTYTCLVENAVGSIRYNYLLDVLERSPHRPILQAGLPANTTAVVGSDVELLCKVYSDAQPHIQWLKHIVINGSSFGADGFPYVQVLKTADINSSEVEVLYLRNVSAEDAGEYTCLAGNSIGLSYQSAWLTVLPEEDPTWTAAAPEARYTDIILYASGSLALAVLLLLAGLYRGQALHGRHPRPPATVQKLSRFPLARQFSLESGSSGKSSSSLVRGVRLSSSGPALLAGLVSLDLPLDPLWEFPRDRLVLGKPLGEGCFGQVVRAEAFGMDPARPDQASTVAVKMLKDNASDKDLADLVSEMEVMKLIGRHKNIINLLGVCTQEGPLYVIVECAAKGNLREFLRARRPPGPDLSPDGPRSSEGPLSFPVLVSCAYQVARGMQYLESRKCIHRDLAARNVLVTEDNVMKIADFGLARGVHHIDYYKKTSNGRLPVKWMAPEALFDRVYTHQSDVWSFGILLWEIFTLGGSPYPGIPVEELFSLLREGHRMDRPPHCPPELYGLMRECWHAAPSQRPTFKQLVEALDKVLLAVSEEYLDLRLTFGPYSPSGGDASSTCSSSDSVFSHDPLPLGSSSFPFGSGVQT

Row | IC50 [1] [µM] | IC50 [2] [µM] | SMILES
1 | 0.00096 | – | COC[C@@H](C)Nc1cc(NC(=O)N2CCCc3cc(CN4CCCCOC4=O)c(C=O)nc32)ncc1C#N
2 | – | > 10 | CO[C@@H]1CCCC1Nc1cc(NC(=O)N2CCCc3cc(CN4CCOCC4=O)c(C=O)nc32)ncc1C#N (stereo partly drawn)
3 | – | > 10 | COCCNc1cc(NC(=O)N2CCCc3cc(CN4CCCCOC4=O)c(C=O)nc32)ncc1C#N
